Where a name gives a salt, the structure may show the parent alone.
Key:
HCT116 cells = assay: Effects on HCT116 colorectal cancer cell viability (cell titre blue, 72 hours); format: cell-based; settings: Homo sapiens, HCT-116, HCT116 cell line
cytochrome P450 3A4 = cytochrome P450 3A4 (Homo sapiens, UniProt P08684); assay: Cytochrome P450 inhibition, 3A4; format: in vitro ADME
HCT116 xenograft tumours = assay: In vivo anti-cancer activity in mice bearing HCT116 tumours; settings: oral 50 mg/kg or 200 m/kg on days 1, 3, 7, 10 and 13, dose of the T/C value not stated
Description: In Vivo Anti-Cancer Activity in Mice Bearing HCT116 Tumours
Mice bearing HCT116 xenograft tumours were give oral dosages of either 50 mg/kg or […] on days 1, 3, 7, 10 and 13 and the tumour volumes measured at days 1, 3, 5, 8, 10, 12 and 15. Tumour volumes in a control group of tumour-bearing mice, who had received vehicle only at the same time points were also measured.

[1] = system: glioblastoma cell line 907042; assay: Glioblastoma cancer cell viability, cell line 907042; format: cell-based
Description: (§1) Assay to Measure the Effects of Compounds of the Invention on Glioblastoma Cancer Cell Viability
(§2) The compound of Example 33 was tested for inhibitory activity against the glioblastoma cell lines in Table 7 below.

[2] = system: glioblastoma cell line 909750; assay: Glioblastoma cancer cell viability, cell line 909750; format: cell-based
Description: as §1, §2

[3] = system: glioblastoma cell line 946368; assay: Glioblastoma cancer cell viability, cell line 946368; format: cell-based
Description: as §1, §2

[4] = system: glioblastoma cell line 946370; assay: Glioblastoma cancer cell viability, cell line 946370; format: cell-based
Description: as §1, §2

AURKB = biological target: T1, AURKB (Homo sapiens, UniProt Q96GD4); assay: Kinase selectivity assay (DiscoverX KinomeScreen), AURKB; format: binding; settings: read-out: % Control
T1 construct: purchased DiscoverX
Description: (§3) The compound of Example 33 was tested for off-target activity against a panel of fifty five kinases bearing functional or structural similarity to PLK1 at a concentration of 5 μM using the DiscoverX KinomeScreen assay.

AURKC = biological target: T2, AURKC (Homo sapiens, UniProt Q9UQB9); assay: Kinase selectivity assay (DiscoverX KinomeScreen), AURKC; format: binding; settings: read-out: % Control
T2 construct: purchased DiscoverX
Description: as §3

CAMKK2 = biological target: T3, CAMKK2 (Homo sapiens, UniProt Q96RR4); assay: Kinase selectivity assay (DiscoverX KinomeScreen), CAMKK2; format: binding; settings: CAMKK2, 5 μM; read-out: % Control
T3 construct: purchased DiscoverX
Description: as §3

CSNK2A1 = biological target: T4, CSNK2A1 (Homo sapiens, UniProt P68400); assay: Kinase selectivity assay (DiscoverX KinomeScreen), CSNK2A1; format: binding; settings: CSNK2A1, 5 μM; read-out: % Control
T4 construct: purchased DiscoverX
Description: as §3

CSNK2A2 = biological target: T5, CSNK2A2 (Homo sapiens, UniProt P19784); assay: Kinase selectivity assay (DiscoverX KinomeScreen), CSNK2A2; format: binding; settings: CSNK2A2, 5 μM; read-out: % Control
T5 construct: purchased DiscoverX
Description: as §3

NEK3 = biological target: T6, NEK3 (Homo sapiens, UniProt P51956); assay: Kinase selectivity assay (DiscoverX KinomeScreen), NEK3; format: binding; settings: NEK3, 5 μM; read-out: % Control
T6 construct: purchased DiscoverX
Description: as §3

NEK5 = biological target: T7, NEK5 (Homo sapiens, UniProt Q6P3R8); assay: Kinase selectivity assay (DiscoverX KinomeScreen), NEK5; format: binding; settings: NEK5, 5 μM; read-out: % Control
T7 construct: purchased DiscoverX
Description: as §3

PKMYT1 = biological target: T8, PKMYT1 (Homo sapiens, UniProt Q99640); assay: Kinase selectivity assay (DiscoverX KinomeScreen), PKMYT1; format: binding; settings: PKMYT1, 5 μM; read-out: % Control
T8 construct: purchased DiscoverX
Description: as §3

PLK1 = biological target: T9, PLK1 (Homo sapiens, UniProt P53350); assay: Kinase selectivity assay (DiscoverX KinomeScreen), PLK1; format: binding; settings: PLK1, 5 μM; read-out: % Control
T9 construct: purchased DiscoverX
Description: as §3

DSTYK = biological target: T10, DSTYK (Homo sapiens, UniProt Q6XUX3); assay: Kinase selectivity assay (DiscoverX KinomeScreen), DSTYK; format: binding; settings: read-out: % Control
T10 construct: purchased DiscoverX
Description: as §3

SBK1 = biological target: T11, SBK1 (Homo sapiens, UniProt Q52WX2); assay: Kinase selectivity assay (DiscoverX KinomeScreen), SBK1; format: binding; settings: SBK1, 5 μM; read-out: % Control
T11 construct: purchased DiscoverX
Description: as §3

TBK1 = biological target: T12, TBK1 (Homo sapiens, UniProt Q9UHD2); assay: Kinase selectivity assay (DiscoverX KinomeScreen), TBK1; format: binding; settings: TBK1, 5 μM; read-out: % Control
T12 construct: purchased DiscoverX
Description: as §3

TTK = biological target: T13, TTK (Homo sapiens, UniProt P33981); assay: Kinase selectivity assay (DiscoverX KinomeScreen), TTK; format: binding; settings: read-out: % Control
T13 construct: purchased DiscoverX
Description: as §3

ULK1 = biological target: T14, ULK1 (Homo sapiens, UniProt O75385); assay: Kinase selectivity assay (DiscoverX KinomeScreen), ULK1; format: binding; settings: ULK1, 5 μM; read-out: % Control
T14 construct: purchased DiscoverX
Description: as §3

WNK4 = biological target: T15, WNK4 (Homo sapiens, UniProt Q96J92); assay: Kinase selectivity assay (DiscoverX KinomeScreen), WNK4; format: binding; settings: WNK4, 5 μM; read-out: % Control
T15 construct: purchased DiscoverX
Description: as §3

T7 sequence (Q6P3R8 whole entry): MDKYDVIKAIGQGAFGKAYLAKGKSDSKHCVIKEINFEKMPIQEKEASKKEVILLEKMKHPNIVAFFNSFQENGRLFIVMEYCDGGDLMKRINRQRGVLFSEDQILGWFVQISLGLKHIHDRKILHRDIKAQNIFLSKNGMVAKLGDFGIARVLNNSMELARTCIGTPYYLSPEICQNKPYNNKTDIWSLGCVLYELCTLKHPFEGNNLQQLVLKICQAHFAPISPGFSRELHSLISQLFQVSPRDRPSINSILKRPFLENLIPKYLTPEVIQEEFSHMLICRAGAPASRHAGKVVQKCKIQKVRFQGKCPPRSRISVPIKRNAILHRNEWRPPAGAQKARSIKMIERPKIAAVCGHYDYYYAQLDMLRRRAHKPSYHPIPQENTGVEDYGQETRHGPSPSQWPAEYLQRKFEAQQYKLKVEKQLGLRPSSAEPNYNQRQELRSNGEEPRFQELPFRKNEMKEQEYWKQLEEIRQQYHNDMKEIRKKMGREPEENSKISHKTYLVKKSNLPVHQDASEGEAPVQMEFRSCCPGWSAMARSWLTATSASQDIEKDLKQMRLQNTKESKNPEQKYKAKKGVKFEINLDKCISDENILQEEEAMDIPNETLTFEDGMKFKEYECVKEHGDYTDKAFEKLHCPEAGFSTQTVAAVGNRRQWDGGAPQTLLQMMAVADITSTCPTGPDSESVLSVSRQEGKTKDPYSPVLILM
T8 sequence (Q99640 whole entry): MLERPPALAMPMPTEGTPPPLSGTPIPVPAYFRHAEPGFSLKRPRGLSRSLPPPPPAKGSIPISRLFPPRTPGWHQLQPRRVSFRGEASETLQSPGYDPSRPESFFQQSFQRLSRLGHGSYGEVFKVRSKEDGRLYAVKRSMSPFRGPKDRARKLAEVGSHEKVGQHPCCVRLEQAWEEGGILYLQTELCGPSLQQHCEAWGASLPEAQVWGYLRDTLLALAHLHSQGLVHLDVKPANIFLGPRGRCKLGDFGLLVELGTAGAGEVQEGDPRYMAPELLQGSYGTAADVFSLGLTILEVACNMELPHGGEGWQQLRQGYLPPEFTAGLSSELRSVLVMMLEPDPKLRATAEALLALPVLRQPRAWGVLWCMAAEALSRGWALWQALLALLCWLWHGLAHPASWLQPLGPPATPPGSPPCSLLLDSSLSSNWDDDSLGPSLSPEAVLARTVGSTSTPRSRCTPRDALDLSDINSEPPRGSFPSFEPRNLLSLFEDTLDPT
T9 sequence (P53350 whole entry): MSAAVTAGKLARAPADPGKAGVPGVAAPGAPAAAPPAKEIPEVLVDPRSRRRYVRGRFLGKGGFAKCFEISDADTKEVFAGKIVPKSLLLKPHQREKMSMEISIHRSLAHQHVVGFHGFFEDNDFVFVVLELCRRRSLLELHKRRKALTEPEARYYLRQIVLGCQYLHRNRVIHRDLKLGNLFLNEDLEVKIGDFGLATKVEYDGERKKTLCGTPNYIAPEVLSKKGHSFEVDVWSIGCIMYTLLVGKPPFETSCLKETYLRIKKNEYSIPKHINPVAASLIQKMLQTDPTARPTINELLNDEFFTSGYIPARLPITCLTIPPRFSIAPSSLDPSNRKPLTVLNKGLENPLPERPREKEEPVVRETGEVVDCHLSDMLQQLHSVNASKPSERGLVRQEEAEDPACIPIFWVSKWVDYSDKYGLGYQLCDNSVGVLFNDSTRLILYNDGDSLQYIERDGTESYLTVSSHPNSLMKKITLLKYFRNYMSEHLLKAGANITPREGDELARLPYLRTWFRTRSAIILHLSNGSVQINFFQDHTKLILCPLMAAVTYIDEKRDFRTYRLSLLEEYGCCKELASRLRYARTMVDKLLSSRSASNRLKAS
T10 sequence (Q6XUX3 whole entry): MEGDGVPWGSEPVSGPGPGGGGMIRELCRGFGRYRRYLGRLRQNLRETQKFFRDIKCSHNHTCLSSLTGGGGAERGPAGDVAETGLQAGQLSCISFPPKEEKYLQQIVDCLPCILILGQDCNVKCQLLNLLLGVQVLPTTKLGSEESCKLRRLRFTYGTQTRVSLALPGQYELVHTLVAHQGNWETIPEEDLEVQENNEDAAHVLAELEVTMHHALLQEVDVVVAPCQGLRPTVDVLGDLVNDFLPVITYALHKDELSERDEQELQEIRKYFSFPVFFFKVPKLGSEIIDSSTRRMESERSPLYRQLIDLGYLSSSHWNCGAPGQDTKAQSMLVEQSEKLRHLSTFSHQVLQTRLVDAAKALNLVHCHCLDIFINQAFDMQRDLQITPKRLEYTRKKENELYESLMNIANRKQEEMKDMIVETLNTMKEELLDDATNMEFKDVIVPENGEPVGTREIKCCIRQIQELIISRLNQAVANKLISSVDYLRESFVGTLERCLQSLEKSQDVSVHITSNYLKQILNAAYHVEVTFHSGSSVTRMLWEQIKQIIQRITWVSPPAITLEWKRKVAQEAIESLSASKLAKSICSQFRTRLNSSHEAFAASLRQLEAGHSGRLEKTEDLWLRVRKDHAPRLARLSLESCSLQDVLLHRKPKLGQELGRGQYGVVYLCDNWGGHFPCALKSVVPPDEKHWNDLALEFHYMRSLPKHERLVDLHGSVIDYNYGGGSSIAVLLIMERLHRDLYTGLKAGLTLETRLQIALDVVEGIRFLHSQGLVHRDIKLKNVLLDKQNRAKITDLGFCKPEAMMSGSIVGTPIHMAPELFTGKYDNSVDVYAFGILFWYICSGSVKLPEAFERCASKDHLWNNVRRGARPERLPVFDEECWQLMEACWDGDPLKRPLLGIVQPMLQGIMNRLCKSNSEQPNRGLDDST
T12 sequence (Q9UHD2 whole entry): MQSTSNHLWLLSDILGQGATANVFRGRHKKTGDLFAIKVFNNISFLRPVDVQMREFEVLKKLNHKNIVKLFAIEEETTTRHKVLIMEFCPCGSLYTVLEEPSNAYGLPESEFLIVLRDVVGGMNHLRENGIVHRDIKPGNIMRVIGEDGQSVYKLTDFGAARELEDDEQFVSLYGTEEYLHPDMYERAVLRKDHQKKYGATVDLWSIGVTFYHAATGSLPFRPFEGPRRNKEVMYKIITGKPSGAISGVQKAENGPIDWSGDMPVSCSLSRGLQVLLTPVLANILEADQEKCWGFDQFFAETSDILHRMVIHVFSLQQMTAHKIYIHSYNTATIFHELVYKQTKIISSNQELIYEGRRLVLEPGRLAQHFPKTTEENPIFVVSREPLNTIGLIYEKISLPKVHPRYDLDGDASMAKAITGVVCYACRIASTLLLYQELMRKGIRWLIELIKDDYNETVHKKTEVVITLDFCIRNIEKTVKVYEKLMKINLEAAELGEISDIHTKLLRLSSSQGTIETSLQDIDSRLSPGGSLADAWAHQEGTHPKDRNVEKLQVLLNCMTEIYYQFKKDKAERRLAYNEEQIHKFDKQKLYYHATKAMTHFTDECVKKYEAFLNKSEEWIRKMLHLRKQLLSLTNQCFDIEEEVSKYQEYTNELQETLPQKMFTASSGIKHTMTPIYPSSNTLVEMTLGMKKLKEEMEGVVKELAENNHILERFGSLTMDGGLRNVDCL
T14 sequence (O75385 whole entry): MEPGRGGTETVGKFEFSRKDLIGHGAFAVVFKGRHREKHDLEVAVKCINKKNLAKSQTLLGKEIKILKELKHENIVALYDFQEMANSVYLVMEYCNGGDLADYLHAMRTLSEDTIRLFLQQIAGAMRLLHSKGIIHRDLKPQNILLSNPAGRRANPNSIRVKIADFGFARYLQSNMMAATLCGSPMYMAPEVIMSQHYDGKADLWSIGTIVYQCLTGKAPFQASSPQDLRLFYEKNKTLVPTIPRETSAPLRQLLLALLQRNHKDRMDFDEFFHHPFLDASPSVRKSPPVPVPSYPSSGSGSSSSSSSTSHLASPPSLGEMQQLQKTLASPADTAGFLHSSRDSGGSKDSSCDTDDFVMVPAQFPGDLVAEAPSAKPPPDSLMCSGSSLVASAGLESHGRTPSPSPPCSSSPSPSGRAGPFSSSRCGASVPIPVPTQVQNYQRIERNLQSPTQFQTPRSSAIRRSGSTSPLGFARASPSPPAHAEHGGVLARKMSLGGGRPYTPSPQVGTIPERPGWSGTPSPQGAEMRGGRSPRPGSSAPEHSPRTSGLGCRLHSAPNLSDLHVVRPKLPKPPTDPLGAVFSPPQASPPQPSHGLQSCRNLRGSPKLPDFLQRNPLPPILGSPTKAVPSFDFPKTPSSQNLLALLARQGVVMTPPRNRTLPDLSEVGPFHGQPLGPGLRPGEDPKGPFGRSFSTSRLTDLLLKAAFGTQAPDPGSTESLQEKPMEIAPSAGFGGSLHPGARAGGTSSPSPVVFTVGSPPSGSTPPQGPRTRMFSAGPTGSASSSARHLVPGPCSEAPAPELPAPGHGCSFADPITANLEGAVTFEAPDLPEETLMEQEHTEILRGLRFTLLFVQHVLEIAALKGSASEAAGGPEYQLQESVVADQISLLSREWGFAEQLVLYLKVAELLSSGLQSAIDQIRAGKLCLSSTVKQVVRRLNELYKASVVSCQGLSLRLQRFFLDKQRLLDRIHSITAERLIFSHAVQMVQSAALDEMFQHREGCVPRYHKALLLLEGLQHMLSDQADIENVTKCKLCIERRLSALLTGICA
T2 sequence (Q9UQB9 whole entry): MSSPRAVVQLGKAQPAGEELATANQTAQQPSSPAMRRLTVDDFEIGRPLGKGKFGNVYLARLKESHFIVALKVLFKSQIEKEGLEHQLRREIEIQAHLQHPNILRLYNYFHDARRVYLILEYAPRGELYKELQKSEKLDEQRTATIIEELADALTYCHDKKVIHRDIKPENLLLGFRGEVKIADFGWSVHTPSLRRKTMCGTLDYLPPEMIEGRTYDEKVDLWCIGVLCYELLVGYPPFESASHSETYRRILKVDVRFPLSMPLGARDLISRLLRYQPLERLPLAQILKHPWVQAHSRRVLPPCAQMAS

In the case of CN(C)CCNC(=O)c1ccc(-c2ccc(-c3ccc(Cl)cc3)n2-c2ccccc2C(F)(F)F)cc1 [Example 33, 4-[5-(4-chlorophenyl)-1-[2-(trifluoromethyl)phenyl]pyrrol-2-yl]-N-[2-(dimethylamino)ethyl]benzamide Hydrochloride], the GI50 (HCT116 cells) is reported as 10 nM, the “cytochrome P450 inhibition 3A4” value (cytochrome P450 3A4) is reported as greater than 10 µM and the “effect on tumour growth (T/C)” value (HCT116 xenograft tumours) is reported as 48%. For the same compound, the IC50 [1] was 71 nM, the IC50 [2] was 929 nM and the IC50 [3] was 1400 nM. It also gave an IC50 [4] of 1670 nM, a remaining activity at 5 µM (AURKB) of 95% and a remaining activity at 5 µM (AURKC) of 85%. For the same compound, the remaining activity at 5 µM (CAMKK2) was 97%, the remaining activity at 5 µM (CSNK2A1) was 96% and the remaining activity at 5 µM (CSNK2A2) was 92%. For the same compound, the remaining activity at 5 µM (NEK3) was 74%, the remaining activity at 5 µM (NEK5) was 99% and the remaining activity at 5 µM (PKMYT1) was 100%. It also gave a remaining activity at 5 µM (PLK1) of 100%, a remaining activity at 5 µM (DSTYK) of 75% and a remaining activity at 5 µM (SBK1) of 61%. It also gave a remaining activity at 5 µM (TBK1) of 80%, a remaining activity at 5 µM (TTK) of 83% and a remaining activity at 5 µM (ULK1) of 84%. It also gave a remaining activity at 5 µM (WNK4) of 91%.

— patent publication US11208405B2, “Pyrrole derivatives as PLK1 inhibitors” (SENTINEL ONCOLOGY LIMITED, priority 2017, dated 2021)
